Data from US10800791B2, “Triazole ACC inhibitors and uses thereof” (Gilead Apollo, LLC, priority 2015, dated 2020).
In brackets after ≈: the same amount, converted by molar mass. Read-outs that look alike come from different tables or passages of the source.

Legend:
human (hACC2) = human (hACC2) (Homo sapiens, UniProt O00763); test: In vitro ACC inhibition assay (ADP-Glo), hACC2; type: biochemical; details: 5 nM ACC2, 20 μM ATP, 20 μM acetyl-CoA
Description: The detailed procedure is as follows. […] 10 μL ADP glo reagent was added. […] 20 μL kinase detection reagent was added.

C. albicans = test: Antifungal Activity Assay (broth microtiter MIC), C. albicans; type: cell-based, Candida albicans; details: 3 replicates, MIC recorded at 48 h; for MIC: Candida albicans, ATCC90028, 48 h, ATCC 90028, read-out: MIC, C. albicans ATCC 90028
Outline: (§1)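 CLSI M27-A3 broth microdilution in RPMI 1640+MOPS, final inoculum 2.5×10^3 CFU/mL from overnight Sabouraud cultures grown at 35 °C. MIC read visually at 48 h against growth control.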

C. krusei = test: Antifungal Activity Assay (broth microtiter MIC), C. krusei; type: cell-based, Candida krusei; details: 3 replicates, MIC recorded at 48 h; for MIC: Pichia kudriavzevii, ATCC6258, 48 h, ATCC 6258, read-out: MIC, C. krusei ATCC 6258
Outline: as §1

C. parapsilosis = test: Antifungal Activity Assay (broth microtiter MIC), C. parapsilosis; type: cell-based, Candida parapsilosis; details: 3 replicates, MIC recorded at 48 h; for MIC: Lodderomyces parapsilosis, ATCC22019, 48 h, ATCC 22019, read-out: MIC, C. parapsilosis ATCC 22019
Outline: as §1

Botrtyis cinerea (Bc) = test: Growth inhibition assay of fungal pathogens, Bc; type: cell-based; details: 48 h
Description: (§2) Compounds of the present invention were evaluated in a growth inhibition assay to determine the ability to control the growth of fungal pathogens, such as Botrtyis cinerea (Bc), Collectotrichum graminicola (Cg), Diplodia maydis (Dm), Fusarium moniliforme (Fm), Fusarium virguliforme (Fv), Phytophthora capsici (Pc), Rhizoctonia solani (Rs), and Septoria tritici (St).
(§3) Compounds to be tested were dissolved in DMSO at 2.5 mg/ml to produce compound stock solutions (“stocks”). Stocks were diluted with DMSO by a five-fold dilution in a 96-well stock plate, and two sets of final concentrations of 50, 10, and 2 ppm or 2, 0.4, and 0.08 ppm were obtained in vitro. A set of positive controls was also prepared, with various concentrations of Soraphen (2, 0.4, and 0.08 ppm), Metalaxyl (1.1, 0.22, and 0.04 ppm), and Metconazole (2, 0.4, and 0.08 ppm or 0.2, 0.04, and 0.008 ppm) after the five-fold dilutions. Negative controls on each plate included 2% DMSO, water, and a blank (media+2% DMSO).
(§4) Fungal spores were isolated from previously sub-cultured plates of Botrtyis cinerea (Bc), Collectotrichum graminicola (Cg), Diplodia maydis (Dm), Fusarium moniliforme (Fm), Fusarium virguliforme (Fv), Phytophthora capsici (Pc), and Septoria tritici (St). The isolated spores were diluted to individual concentrations with a 17% V8 liquid media. For Rhizoctonia solani (Rs) and Pythium irregulare, 1.5 mm mycelial plugs were used in place of spores and/4 Potato Dextrose Broth (PDB) was used for dilution. The spore concentrations and plug sizes were based on growth curves generated at 48 hours for each pathogen.
(§5) In a second 96-well plate, the spores or mycelial plugs, media, diluted compound solutions, and controls were combined. Once the compound was added, a true final concentration of compound in each well was measured by an OD600 reading, which adjusted for any compound precipitation that might have occurred in the well. Plate readings were repeated at both 24 and 48 hours. The blank negative control was used as a background subtraction. Additional visual ratings were performed at both 24 and 48 hours for checking on precipitation and confirming efficacy. Visual and OD600 ratings of the compounds at 48 hours were compared to the 2% DMSO negative control, and the percent of pathogen growth inhibition was determined based on those values.

[1] = test system: Collectotrichum graminicola (Cg); test: Growth inhibition assay of fungal pathogens, Cg; type: cell-based; details: 48 h
Description: as §2, §3, §4, §5

Diplodia maydis (Dm) = test: Growth inhibition assay of fungal pathogens, Dm; type: cell-based; details: Stenocarpella maydis, 48 h
Description: as §2, §3, §4, §5

[2] = test system: Fusarium moniliforme (Fm); test: Growth inhibition assay of fungal pathogens, Fm; type: cell-based; details: for IC90: Fusarium verticillioides, 48 h, read-out: Concentration at 90% Inhibition Fm
Description: as §2, §3, §4, §5

[3] = test system: Fusarium virguliforme (Fv); test: Growth inhibition assay of fungal pathogens, Fv; type: cell-based; details: 48 h
Description: as §2, §3, §4, §5

[4] = test system: Phytophthora capsici (Pc); test: Growth inhibition assay of fungal pathogens, Pc; type: cell-based; details: 48 h
Description: as §2, §3, §4, §5

Rhizoctonia solani (Rs) = test: Growth inhibition assay of fungal pathogens, Rs; type: cell-based; details: 48 h
Description: as §2, §3, §4, §5

Septoria tritici (St) = test: Growth inhibition assay of fungal pathogens, St; type: cell-based; details: Zymoseptoria tritici, 48 h
Description: as §2, §3, §4, §5

fungal (fACC2) = fungal (fACC2) (UniProt Q00955); details: read-out: fACC2 (in vitro ACC2 Inhibition Assay, IC50), ADP-Glo, 5 nM ACC2, 20 μM ATP, 20 μM acetyl-CoA
[5] = Fusarium moniliforme, growth inhibition at 48 hours vs 2% DMSO control

Chain of human (hACC2) (O00763 whole entry): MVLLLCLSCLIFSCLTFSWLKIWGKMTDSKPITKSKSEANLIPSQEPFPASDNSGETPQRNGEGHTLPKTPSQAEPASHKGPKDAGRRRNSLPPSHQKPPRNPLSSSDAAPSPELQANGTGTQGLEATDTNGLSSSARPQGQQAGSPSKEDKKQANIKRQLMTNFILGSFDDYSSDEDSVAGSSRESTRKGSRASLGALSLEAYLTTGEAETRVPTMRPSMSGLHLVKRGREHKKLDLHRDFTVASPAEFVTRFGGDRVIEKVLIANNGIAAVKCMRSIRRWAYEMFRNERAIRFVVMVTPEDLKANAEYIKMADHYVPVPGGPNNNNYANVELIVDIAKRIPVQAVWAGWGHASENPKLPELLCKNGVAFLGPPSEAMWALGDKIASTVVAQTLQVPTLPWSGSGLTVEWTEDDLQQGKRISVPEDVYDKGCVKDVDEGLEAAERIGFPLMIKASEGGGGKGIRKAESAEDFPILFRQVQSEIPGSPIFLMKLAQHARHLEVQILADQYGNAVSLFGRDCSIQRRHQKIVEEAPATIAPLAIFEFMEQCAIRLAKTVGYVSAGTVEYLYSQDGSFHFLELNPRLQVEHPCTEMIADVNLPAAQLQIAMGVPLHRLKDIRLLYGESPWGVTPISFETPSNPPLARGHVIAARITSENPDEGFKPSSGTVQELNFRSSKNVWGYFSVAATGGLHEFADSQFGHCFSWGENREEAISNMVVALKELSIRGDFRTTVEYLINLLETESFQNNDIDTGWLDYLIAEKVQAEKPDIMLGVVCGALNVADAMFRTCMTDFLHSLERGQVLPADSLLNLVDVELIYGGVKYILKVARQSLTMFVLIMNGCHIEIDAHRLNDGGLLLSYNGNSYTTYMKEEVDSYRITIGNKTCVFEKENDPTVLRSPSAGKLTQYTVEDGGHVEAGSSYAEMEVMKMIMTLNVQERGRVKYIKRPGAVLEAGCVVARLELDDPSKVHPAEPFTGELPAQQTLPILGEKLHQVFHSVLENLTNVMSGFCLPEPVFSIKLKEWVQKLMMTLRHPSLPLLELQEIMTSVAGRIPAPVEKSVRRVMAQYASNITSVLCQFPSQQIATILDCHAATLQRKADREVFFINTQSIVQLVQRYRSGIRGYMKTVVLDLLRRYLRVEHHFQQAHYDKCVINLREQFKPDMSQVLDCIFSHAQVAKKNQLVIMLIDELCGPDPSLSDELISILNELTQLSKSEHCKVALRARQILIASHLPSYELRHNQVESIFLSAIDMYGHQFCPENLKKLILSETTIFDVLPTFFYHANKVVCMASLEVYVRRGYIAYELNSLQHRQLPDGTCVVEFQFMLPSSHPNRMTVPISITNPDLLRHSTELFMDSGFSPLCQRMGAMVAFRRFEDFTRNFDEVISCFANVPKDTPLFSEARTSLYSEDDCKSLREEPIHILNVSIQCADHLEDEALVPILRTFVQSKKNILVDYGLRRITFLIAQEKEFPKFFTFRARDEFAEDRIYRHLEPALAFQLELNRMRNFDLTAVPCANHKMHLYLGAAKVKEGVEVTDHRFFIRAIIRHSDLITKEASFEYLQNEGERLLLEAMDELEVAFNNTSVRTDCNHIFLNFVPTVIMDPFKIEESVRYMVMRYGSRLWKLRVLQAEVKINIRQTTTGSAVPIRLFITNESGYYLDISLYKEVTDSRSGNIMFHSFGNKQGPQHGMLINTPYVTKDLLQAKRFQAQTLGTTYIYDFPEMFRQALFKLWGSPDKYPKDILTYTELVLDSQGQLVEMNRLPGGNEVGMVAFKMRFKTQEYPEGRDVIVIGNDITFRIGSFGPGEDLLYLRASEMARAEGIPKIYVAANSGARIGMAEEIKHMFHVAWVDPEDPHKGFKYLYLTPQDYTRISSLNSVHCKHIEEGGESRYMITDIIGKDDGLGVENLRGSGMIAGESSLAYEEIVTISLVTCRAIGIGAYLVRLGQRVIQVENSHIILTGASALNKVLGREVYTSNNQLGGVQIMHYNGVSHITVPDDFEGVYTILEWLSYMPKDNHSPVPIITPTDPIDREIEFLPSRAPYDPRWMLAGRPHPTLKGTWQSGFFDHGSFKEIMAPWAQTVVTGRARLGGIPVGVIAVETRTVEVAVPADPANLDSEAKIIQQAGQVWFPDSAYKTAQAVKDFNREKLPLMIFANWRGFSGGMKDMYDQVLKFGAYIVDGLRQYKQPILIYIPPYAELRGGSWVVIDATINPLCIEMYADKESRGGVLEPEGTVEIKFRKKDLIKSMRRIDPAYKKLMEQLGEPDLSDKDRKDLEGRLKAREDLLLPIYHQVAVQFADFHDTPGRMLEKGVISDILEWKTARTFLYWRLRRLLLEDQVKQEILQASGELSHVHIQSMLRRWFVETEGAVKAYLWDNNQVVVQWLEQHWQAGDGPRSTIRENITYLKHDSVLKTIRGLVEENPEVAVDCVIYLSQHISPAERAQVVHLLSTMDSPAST
Chain of fungal (fACC2) (Q00955 whole entry): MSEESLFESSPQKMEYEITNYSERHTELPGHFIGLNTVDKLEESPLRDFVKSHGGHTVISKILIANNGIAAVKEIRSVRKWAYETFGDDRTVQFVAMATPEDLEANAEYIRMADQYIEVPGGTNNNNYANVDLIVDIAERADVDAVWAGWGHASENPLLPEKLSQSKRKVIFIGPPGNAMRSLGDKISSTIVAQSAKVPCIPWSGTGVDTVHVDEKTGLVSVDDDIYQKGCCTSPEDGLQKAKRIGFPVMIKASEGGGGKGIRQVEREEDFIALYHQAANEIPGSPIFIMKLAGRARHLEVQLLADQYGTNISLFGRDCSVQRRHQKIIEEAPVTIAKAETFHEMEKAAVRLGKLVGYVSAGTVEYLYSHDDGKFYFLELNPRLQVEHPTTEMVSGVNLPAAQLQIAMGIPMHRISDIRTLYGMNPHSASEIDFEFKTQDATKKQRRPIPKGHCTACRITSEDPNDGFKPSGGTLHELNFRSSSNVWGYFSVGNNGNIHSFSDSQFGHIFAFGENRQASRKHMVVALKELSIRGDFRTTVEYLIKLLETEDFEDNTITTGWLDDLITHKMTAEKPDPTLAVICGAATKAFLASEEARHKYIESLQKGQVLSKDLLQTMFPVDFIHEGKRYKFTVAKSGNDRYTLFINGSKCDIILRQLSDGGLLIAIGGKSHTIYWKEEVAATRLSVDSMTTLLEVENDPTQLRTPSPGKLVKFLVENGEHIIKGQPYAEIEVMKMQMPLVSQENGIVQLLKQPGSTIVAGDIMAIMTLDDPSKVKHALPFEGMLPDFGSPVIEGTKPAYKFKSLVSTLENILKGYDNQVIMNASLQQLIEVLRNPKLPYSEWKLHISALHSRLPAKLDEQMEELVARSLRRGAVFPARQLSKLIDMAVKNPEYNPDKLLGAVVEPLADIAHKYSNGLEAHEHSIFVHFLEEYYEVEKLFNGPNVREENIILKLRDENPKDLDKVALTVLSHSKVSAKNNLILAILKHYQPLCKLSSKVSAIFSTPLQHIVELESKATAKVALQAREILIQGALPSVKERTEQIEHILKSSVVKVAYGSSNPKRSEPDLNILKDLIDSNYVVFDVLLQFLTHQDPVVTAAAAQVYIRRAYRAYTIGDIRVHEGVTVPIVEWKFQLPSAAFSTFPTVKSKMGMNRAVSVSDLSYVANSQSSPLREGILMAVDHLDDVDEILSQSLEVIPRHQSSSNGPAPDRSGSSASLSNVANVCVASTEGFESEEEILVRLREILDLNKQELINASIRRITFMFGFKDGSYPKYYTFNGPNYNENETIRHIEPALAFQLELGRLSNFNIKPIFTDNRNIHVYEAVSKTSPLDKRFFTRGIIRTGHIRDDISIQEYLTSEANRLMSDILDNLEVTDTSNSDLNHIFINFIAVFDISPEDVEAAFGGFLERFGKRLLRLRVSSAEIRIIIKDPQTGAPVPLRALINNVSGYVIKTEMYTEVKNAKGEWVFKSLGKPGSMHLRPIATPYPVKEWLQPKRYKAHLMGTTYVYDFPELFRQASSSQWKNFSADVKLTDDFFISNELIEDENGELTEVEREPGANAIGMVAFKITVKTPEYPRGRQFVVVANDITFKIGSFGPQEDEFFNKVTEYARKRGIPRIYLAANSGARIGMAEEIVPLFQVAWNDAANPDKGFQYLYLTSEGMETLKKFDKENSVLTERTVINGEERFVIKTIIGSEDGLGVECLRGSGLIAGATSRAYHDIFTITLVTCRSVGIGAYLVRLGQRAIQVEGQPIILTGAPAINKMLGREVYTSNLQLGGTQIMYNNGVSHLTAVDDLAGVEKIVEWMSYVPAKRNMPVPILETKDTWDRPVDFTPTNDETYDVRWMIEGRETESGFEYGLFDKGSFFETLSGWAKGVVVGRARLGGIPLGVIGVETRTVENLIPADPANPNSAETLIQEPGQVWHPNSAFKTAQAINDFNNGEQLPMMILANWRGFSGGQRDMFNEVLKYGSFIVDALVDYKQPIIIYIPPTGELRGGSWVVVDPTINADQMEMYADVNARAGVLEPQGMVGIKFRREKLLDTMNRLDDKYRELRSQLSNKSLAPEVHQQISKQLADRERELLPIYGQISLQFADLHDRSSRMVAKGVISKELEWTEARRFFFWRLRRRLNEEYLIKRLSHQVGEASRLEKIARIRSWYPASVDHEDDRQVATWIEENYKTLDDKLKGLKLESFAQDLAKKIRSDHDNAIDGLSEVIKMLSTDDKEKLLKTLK

COCCO[C@@H](Cn1c(=O)n([C@@H](C)C(=O)NC(C)C)c(=O)c2c(C)c(-n3nccn3)sc21)c1cc(F)ccc1OC [Compound I-66, (S)-2-(1-((R)-2-(5-fluoro-2-methoxyphenyl)-2-(2-methoxy-ethoxy)ethyl)-5-methyl-2,4-dioxo-6-(2H-1,2,3-triazol-2-yl)-1,4-dihydrothieno[2,3-d]pyrimidin-3(2H)-yl)-N-isopropylpropanamide]
IC50 (human (hACC2); Table 2a): 5 to 10 nM
IC50 (human (hACC2); Table 2b, additional results): 5 to 10 nM
MIC, C. albicans ATCC 90028 (C. albicans; Table 3a): C (MIC of 2.1-4.0 μg/mL)
MIC, C. albicans ATCC 90028 (C. albicans; Table 3b (additional results)): D (MIC of >4.01 μg/mL)
MIC, C. krusei ATCC 6258 (C. krusei; Table 3a): B (MIC of 1.1-2.0 μg/mL)
MIC, C. krusei ATCC 6258 (C. krusei; Table 3b (additional results)): C (MIC of 2.01-4.0 μg/mL)
MIC, C. parapsilosis ATCC 22019 (C. parapsilosis; Table 3a): B (MIC of 1.1-2.0 μg/mL)
MIC, C. parapsilosis ATCC 22019 (C. parapsilosis; Table 3b (additional results)): B (MIC of 1.01-2.0 μg/mL)
IC90 (Botrtyis cinerea (Bc); read-out: Concentration at 90% Inhibition Bc, Botrtyis cinerea, growth inhibition at 48 hours vs 2% DMSO control): 2 µg/mL (≈ 3.4 µM)
IC90 (Botrtyis cinerea (Bc); read-out: Concentration at 90% Inhibition Bc, Botrtyis cinerea, growth inhibition vs 2% DMSO control at 48 hours): 2 µg/mL (≈ 3.4 µM)
IC90 ([1]; read-out: Concentration at 90% Inhibition Cg, Collectotrichum graminicola, growth inhibition at 48 hours vs 2% DMSO control): 0.4 µg/mL (≈ 0.68 µM)
IC90 ([1]; read-out: Concentration at 90% Inhibition Cg, Collectotrichum graminicola, growth inhibition vs 2% DMSO control at 48 hours): 0.4 µg/mL (≈ 0.68 µM)
IC90 (Diplodia maydis (Dm); read-out: Concentration at 90% Inhibition Dm, Diplodia maydis, growth inhibition at 48 hours vs 2% DMSO control): 0.4 µg/mL (≈ 0.68 µM)
IC90 (Diplodia maydis (Dm); read-out: Concentration at 90% Inhibition Dm, Diplodia maydis, growth inhibition vs 2% DMSO control at 48 hours): 0.4 µg/mL (≈ 0.68 µM)
Concentration at 90% Inhibition Fm [2, 5]: AA (compound concentration of 0.08 ppm at 90% inhibition of fungal pathogens)
IC90 [2]: 0.08 µg/mL (≈ 0.136 µM)
IC90 ([3]; read-out: Concentration at 90% Inhibition Fv, Fusarium virguliforme, growth inhibition at 48 hours vs 2% DMSO control): 0.4 µg/mL (≈ 0.68 µM)
IC90 ([3]; read-out: Concentration at 90% Inhibition Fv, Fusarium virguliforme, growth inhibition vs 2% DMSO control at 48 hours): 0.4 µg/mL (≈ 0.68 µM)
IC90 ([4]; read-out: Concentration at 90% Inhibition Pc, Phytophthora capsici, growth inhibition at 48 hours vs 2% DMSO control): 10 µg/mL (≈ 17 µM)
IC90 ([4]; read-out: Concentration at 90% Inhibition Pc, Phytophthora capsici, growth inhibition vs 2% DMSO control at 48 hours): > 50 µg/mL
IC90 (Rhizoctonia solani (Rs); read-out: Concentration at 90% Inhibition Rs, Rhizoctonia solani, mycelial plugs, growth inhibition at 48 hours vs 2% DMSO control): 0.4 µg/mL (≈ 0.68 µM)
IC90 (Rhizoctonia solani (Rs); read-out: Concentration at 90% Inhibition Rs, Rhizoctonia solani, mycelial plugs, growth inhibition vs 2% DMSO control at 48 hours): 0.08 µg/mL (≈ 0.136 µM)
IC90 (Septoria tritici (St); read-out: Concentration at 90% Inhibition St, Septoria tritici, growth inhibition at 48 hours vs 2% DMSO control): > 50 µg/mL
IC90 (Septoria tritici (St); read-out: Concentration at 90% Inhibition St, Septoria tritici, growth inhibition vs 2% DMSO control at 48 hours): > 50 µg/mL
IC50 (fungal (fACC2); Table 2a): 1 to 5 nM
IC50 (fungal (fACC2); Table 2b, additional results): 1 to 5 nM

COCCO[C@@H](Cn1c(=O)n([C@H](C)C(=O)NC(C)C)c(=O)c2c(C)c(-n3nccn3)sc21)c1cc(F)ccc1OC [Compound I-67, (R)-2-(1-((R)-2-(5-fluoro-2-methoxyphenyl)-2-(2-methoxy-ethoxy)ethyl)-5-methyl-2,4-dioxo-6-(2H-1,2,3-triazol-2-yl)-1,4-dihydrothieno[2,3-d]pyrimidin-3(2H)-yl)-N-isopropylpropanamide]
IC50 (human (hACC2); Table 2a): 5 to 10 nM
IC50 (human (hACC2); Table 2b, additional results): 5 to 10 nM
MIC (C. albicans; Table 3a): 1.1 to 2 µg/mL (≈ 1.87 to 3.4 µM)
MIC (C. albicans; Table 3b (additional results)): > 4.01 µg/mL
MIC (C. krusei; Table 3a): 0.25 to 1 µg/mL (≈ 0.425 to 1.7 µM)
MIC (C. krusei; Table 3b (additional results)): 2.01 to 4 µg/mL (≈ 3.41 to 6.8 µM)
MIC (C. parapsilosis; Table 3a): 1.1 to 2 µg/mL (≈ 1.87 to 3.4 µM)
MIC (C. parapsilosis; Table 3b (additional results)): 1.01 to 2 µg/mL (≈ 1.72 to 3.4 µM)
IC90 (Botrtyis cinerea (Bc); Botrtyis cinerea, growth inhibition vs 2% DMSO control at 48 hours, read-out: Concentration at 90% Inhibition Bc): 0.08 µg/mL (≈ 0.136 µM)
IC90 ([1]; Collectotrichum graminicola, growth inhibition vs 2% DMSO control at 48 hours, read-out: Concentration at 90% Inhibition Cg): 0.08 µg/mL (≈ 0.136 µM)
IC90 (Diplodia maydis (Dm); Diplodia maydis, growth inhibition vs 2% DMSO control at 48 hours, read-out: Concentration at 90% Inhibition Dm): 0.08 µg/mL (≈ 0.136 µM)
IC90 ([2]; Fusarium moniliforme, growth inhibition vs 2% DMSO control at 48 hours): 0.08 µg/mL (≈ 0.136 µM)
IC90 ([3]; growth inhibition vs 2% DMSO control at 48 hours, read-out: Concentration at 90% Inhibition Fv): 0.4 µg/mL (≈ 0.68 µM)
IC90 ([4]; growth inhibition vs 2% DMSO control at 48 hours, read-out: Concentration at 90% Inhibition Pc): > 50 µg/mL
IC90 (Rhizoctonia solani (Rs); mycelial plugs, growth inhibition vs 2% DMSO control at 48 hours, read-out: Concentration at 90% Inhibition Rs): 0.08 µg/mL (≈ 0.136 µM)
IC90 (Septoria tritici (St); Septoria tritici, growth inhibition vs 2% DMSO control at 48 hours, read-out: Concentration at 90% Inhibition St): 10 µg/mL (≈ 17 µM)
IC50 (fungal (fACC2); Table 2a): 1 to 5 nM
IC50 (fungal (fACC2); Table 2b, additional results): 1 to 5 nM

COc1ccc(F)cc1[C@@H](Cn1c(=O)n(C(C)(C)C(=O)NC(C)C)c(=O)c2c(C)c(-n3nccn3)sc21)OC(C)=O [Compound I-259]
IC50 (human (hACC2); Table 2b, additional results): 5 to 10 nM
IC90 (Botrtyis cinerea (Bc); Botrtyis cinerea, growth inhibition at 48 hours vs 2% DMSO control, read-out: Concentration at 90% Inhibition Bc): 0.4 µg/mL (≈ 0.682 µM)
IC90 ([1]; Collectotrichum graminicola, growth inhibition at 48 hours vs 2% DMSO control, read-out: Concentration at 90% Inhibition Cg): 0.4 µg/mL (≈ 0.682 µM)
IC90 (Diplodia maydis (Dm); Diplodia maydis, growth inhibition at 48 hours vs 2% DMSO control, read-out: Concentration at 90% Inhibition Dm): 0.4 µg/mL (≈ 0.682 µM)
IC90 [2, 5]: 0.08 µg/mL (≈ 0.136 µM)
IC90 ([3]; growth inhibition at 48 hours vs 2% DMSO control, read-out: Concentration at 90% Inhibition Fv): 0.08 µg/mL (≈ 0.136 µM)
IC90 ([4]; growth inhibition at 48 hours vs 2% DMSO control, read-out: Concentration at 90% Inhibition Pc): > 50 µg/mL
IC90 (Rhizoctonia solani (Rs); mycelial plugs, growth inhibition at 48 hours vs 2% DMSO control, read-out: Concentration at 90% Inhibition Rs): 0.08 µg/mL (≈ 0.136 µM)
IC90 (Septoria tritici (St); Septoria tritici, growth inhibition at 48 hours vs 2% DMSO control, read-out: Concentration at 90% Inhibition St): > 50 µg/mL
IC50 (fungal (fACC2); Table 2b, additional results): 1 to 5 nM
